PubChem BioAssay AID208 (DTP/NCI, 2004)
Values joined by “and” are separate entries in the source; they are usually repeats but may differ in a detail not shown here. Equal values may be shown once. Records with an inconclusive call do not appear.

System: HT29 intrarenal xenograft, nude mice, tumor weight change
Assay: NCI In Vivo Anticancer Drug Screen. Data for tumor model HT29;CX-1 Human Adenocarcinoma (MER+) (intrarenal inoculation) in NU/NU BALB/C (nude) mice
Conditions: endpoint: mean tumor weight change, higher = larger tumour
Method: The antitumor activity of compounds was measured in mice bearing transplantable tumors. Survival or tumor size were measured and the results are expressed as the measurement made in the treated group (T) divided by the measurement made in the vehicle treated control group (C). The tumor model used in this assay is HT29;CX-1 Human Adenocarcinoma (MER+) (intrarenal inoculation) in NU/NU BALB/C (nude) mice

[1] = dose: 75.0 mg/kg/injection, schedule: Q04DX004 (sc), vehicle: saline
[2] = dose: 150.0 mg/kg/injection, schedule: Q04DX004 (sc), vehicle: saline + alcohol
[3] = dose: 150.0 mg/kg/injection, schedule: Q04DX004 (sc), vehicle: saline with Tween-80
[4] = dose: 300.0 mg/kg/injection, schedule: Q04DX004 (sc), vehicle: saline with Tween-80
[5] = dose: 600.0 mg/kg/injection, schedule: Q04DX004 (sc), vehicle: saline with Tween-80
[6] = dose: 1200.0 mg/kg/injection, schedule: Q04DX004 (sc), vehicle: saline with Tween-80

Q: With `Oc1c(Cl)cc(Cl)cc1C=NCCSc1ccc(Cl)cc1` as the compound, how does the T/C (dose: 600.0 mg/kg/injection, schedule: Q04DX004 (ip), vehicle: Klucel (hydroxypropylcellulose) (HPC)) read?
A: The T/C was 105 % of control and 88 % of control.

Q: And the T/C (dose: 1200.0 mg/kg/injection, schedule: Q04DX004 (ip), vehicle: Klucel (hydroxypropylcellulose) (HPC))?
A: Its T/C is 80 % of control.

Q: With `C=C(C)[C@@H]1CCc2c(O)c(O)c(=O)cc(C)c2C1` as the compound, how does the T/C [1] read?
A: Its T/C is 192 % of control.

Q: Which results are given for `COC1=C(OC)C(=O)C(SC/C=C(\C)CCCC(C)CCCC(C)CCCC(C)C)=CC1=O` (centres undefined)?
A: T/C (dose: 300.0 mg/kg/injection, schedule: Q04DX004 (ip), vehicle: saline with Tween-80): 97 % of control; T/C (dose: 600.0 mg/kg/injection, schedule: Q04DX004 (ip), vehicle: saline with Tween-80): 83 % of control; T/C (dose: 1200.0 mg/kg/injection, schedule: Q04DX004 (ip), vehicle: saline with Tween-80): 88 % of control

Q: For `CO[C@H](/C(C)=C/C=C/C(C)=C/c1coc(C)n1)[C@H](C)[C@H]1C[C@@H](O)[C@@]2(C)O[C@H]2/C=C/[C@@H](C)[C@@H]2C[C@@H](CC(=O)O2)C[C@H]2O[C@@H]2C(=O)O1`, which T/C (dose: 0.13 mg/kg/injection, schedule: Q04DX004 (sc), vehicle: Klucel (hydroxypropylcellulose) (HPC)) is on record?
A: The T/C was 73 % of control and 88 % of control.

Q: What about the T/C (dose: 1.0 mg/kg/injection, schedule: Q04DX004 (sc), vehicle: Klucel (hydroxypropylcellulose) (HPC)) of the same compound?
A: Its T/C is 57 % of control.

Q: Which T/C [1] does the source give for `O=P1(NCCCl)OCCCN1CCCl` (centres undefined) here?
A: The T/C was 68 % of control.

Q: Which results are given for `C/C=C/C=C/c1cc2cc3c(c(O)c2c(=O)[nH]1)C1(CC3)C(O)=c2c(=O)c3c(=O)cc(OC)c(=O)c=3c(=O)c2=C1O` (centres undefined)?
A: T/C (dose: 6.0 mg/kg/injection, schedule: Q04DX004 (sc), vehicle: DMSO): 75 % of control; T/C (dose: 12.0 mg/kg/injection, schedule: Q04DX004 (sc), vehicle: DMSO): 77 % of control; T/C (dose: 24.0 mg/kg/injection, schedule: Q04DX004 (sc), vehicle: DMSO): 61 % of control; T/C (dose: 48.0 mg/kg/injection, schedule: Q04DX004 (sc), vehicle: DMSO): 58 % of control

Q: How did the T/C (dose: 200.0 mg/kg/injection, schedule: Q04DX004 (sc), vehicle: saline with Tween-80) turn out when `Nc1nc2ccc(NCc3ccc(C(=O)NC(CCC(=O)O)C(=O)O)cc3)cc2c(=O)[nH]1` (centres undefined) was run?
A: The T/C was 92 % of control.

Q: And the T/C (dose: 400.0 mg/kg/injection, schedule: Q04DX004 (sc), vehicle: saline with Tween-80)?
A: Its T/C is 105 % of control.

Q: `N[C@@H](Cc1ccc(N(CCCl)CCCl)cc1)C(=O)O` was tested. Which T/C (dose: 1.0 mg/kg/injection, schedule: Q01DX010 (sc), vehicle: saline) did it give?
A: Its T/C is 28 % of control.

Q: What about the T/C (dose: 2.0 mg/kg/injection, schedule: Q01DX010 (sc), vehicle: saline) of the same compound?
A: The T/C was 3 % of control.

Q: What does the source list for `COc1cccc2c1C(=O)c1c(O)c3c(c(O)c1C2=O)C[C@@](O)(C(=O)CO)C[C@@H]3OC1CC(N2CCOCC2C#N)C(O)C(C)O1` (some centres undefined)?
A: T/C (dose: 15.0 micrograms/kg/injection, schedule: Q04DX004 (ip), vehicle: saline): 114 % of control; T/C (dose: 30.0 micrograms/kg/injection, schedule: Q04DX004 (ip), vehicle: saline): 110 % of control; T/C (dose: 60.0 micrograms/kg/injection, schedule: Q04DX004 (ip), vehicle: saline): 78 % of control

Q: How did the T/C (dose: 12.5 mg/kg/injection, schedule: Q04DX004 (sc), vehicle: saline with Tween-80) turn out when `C[n+]1ccc2cc(N)c3c4ccccc4sc3c2c1` was run?
A: The T/C was 60 % of control.

Q: And the T/C (dose: 25.0 mg/kg/injection, schedule: Q04DX004 (sc), vehicle: saline with Tween-80)?
A: Its T/C is 43 % of control.

Q: Which T/C (dose: 8.0 mg/kg/injection, schedule: Q04DX004 (sc), vehicle: saline) does the source give for `CC[C@@]1(O)C(=O)OCc2c1cc1n(c2=O)Cc2cc3cc(O)ccc3nc2-1` here?
A: Its T/C is 2 % of control.

Q: What about the T/C (dose: 16.0 mg/kg/injection, schedule: Q04DX004 (sc), vehicle: saline) of the same compound?
A: Its T/C is -74 % of control.

Q: And the T/C (dose: 32.0 mg/kg/injection, schedule: Q04DX004 (sc), vehicle: saline)?
A: Its T/C is -92 % of control.

Q: How did the T/C (dose: 25.0 mg/kg/injection, schedule: Q04DX004 (sc), vehicle: Klucel (hydroxypropylcellulose) (HPC)) turn out when `C=CC(C)(C)n1cc(C2=C(O)C(=O)C(c3cn(C(C)(C)C=C)c4ccccc34)=C(O)C2=O)c2ccccc21` was run?
A: Its T/C is 113 % of control.

Q: What about the T/C (dose: 100.0 mg/kg/injection, schedule: Q04DX004 (sc), vehicle: Klucel (hydroxypropylcellulose) (HPC)) of the same compound?
A: Its T/C is 118 % of control.

Q: And the T/C (dose: 200.0 mg/kg/injection, schedule: Q04DX004 (sc), vehicle: Klucel (hydroxypropylcellulose) (HPC))?
A: The T/C was 121 % of control.

Q: What does the source list for `C1OC1CO[C@@H]1CO[C@H]2[C@@H]1OC[C@H]2OCC1CO1` (some centres undefined)?
A: T/C (dose: 50.0 mg/kg/injection, schedule: Q01DX010 (sc), vehicle: saline with Tween-80): 121 % of control; T/C (dose: 100.0 mg/kg/injection, schedule: Q01DX010 (sc), vehicle: saline with Tween-80): 64 % of control; T/C (dose: 200.0 mg/kg/injection, schedule: Q01DX010 (sc), vehicle: saline with Tween-80): 103 % of control

Q: How did the T/C [2] turn out when `C=CC(C)NC(=S)NNC(=S)NC` (centres undefined) was run?
A: Its T/C is 91 % of control.

Q: What about the T/C (dose: 300.0 mg/kg/injection, schedule: Q04DX004 (sc), vehicle: saline + alcohol) of the same compound?
A: Its T/C is 44 % of control.

Q: What about the T/C (dose: 600.0 mg/kg/injection, schedule: Q04DX004 (sc), vehicle: saline + alcohol) of the same compound?
A: The T/C was 97 % of control.

Q: What about the T/C (dose: 1200.0 mg/kg/injection, schedule: Q04DX004 (sc), vehicle: saline + alcohol) of the same compound?
A: The T/C was 74 % of control.

Q: What does the source list for `O=C(CCCCCCC(=O)ON1C(=O)CCC1=O)ON1C(=O)CCC1=O`?
A: T/C [3]: 25 % of control; T/C [4]: 50 % of control; T/C [5]: 93 % of control; T/C [6]: 77 % of control

Q: `CSc1ncnc2c1ncn2C1OC(CO)C(O)C1O` (centres undefined) was tested. Which T/C (dose: 37.5 mg/kg/injection, schedule: Q04DX004 (sc), vehicle: saline + alcohol) did it give?
A: Its T/C is 101 % of control.

Q: What about the T/C (dose: 75.0 mg/kg/injection, schedule: Q04DX004 (sc), vehicle: saline + alcohol) of the same compound?
A: The T/C was 30 % of control.

Q: What about the T/C [2] of the same compound?
A: The T/C was 12 % of control.

Q: For `O=Cc1ccc(C=O)c(Cl)c1`, which T/C (dose: 150.0 mg/kg/injection, schedule: Q04DX004 (sc), vehicle: Klucel (hydroxypropylcellulose) (HPC)) is on record?
A: Its T/C is 92 % of control.

Q: And the T/C (dose: 300.0 mg/kg/injection, schedule: Q04DX004 (sc), vehicle: Klucel (hydroxypropylcellulose) (HPC))?
A: The T/C was 81 % of control.

Q: What about the T/C (dose: 600.0 mg/kg/injection, schedule: Q04DX004 (sc), vehicle: Klucel (hydroxypropylcellulose) (HPC)) of the same compound?
A: Its T/C is 109 % of control.

Q: What about the T/C (dose: 1200.0 mg/kg/injection, schedule: Q04DX004 (sc), vehicle: Klucel (hydroxypropylcellulose) (HPC)) of the same compound?
A: The T/C was 114 % of control.

Q: Which results are given for `C=C(NC(=O)C(=C)NC(=O)c1csc(C2=NC3c4csc(n4)C4NC(=O)c5csc(n5)C(C(C)(O)C(C)O)NC(=O)C5CSC(=N5)/C(=C/C)NC(=O)C(C(C)O)NC(=O)c5csc(n5)C3(CC2)NC(=O)C(C)NC(=O)C(=C)NC(=O)C(C)NC(=O)C(C(C)CC)NC2C=Cc3c(C(C)O)cc(nc3C2O)C(=O)OC4C)n1)C(N)=O` (centres undefined)?
A: T/C (dose: 400.0 mg/kg/injection, schedule: Q01DX010 (sc), vehicle: Klucel (hydroxypropylcellulose) (HPC)): 81 % of control; T/C (dose: 800.0 mg/kg/injection, schedule: Q01DX010 (sc), vehicle: Klucel (hydroxypropylcellulose) (HPC)): 96 % of control; T/C (dose: 1600.0 mg/kg/injection, schedule: Q01DX010 (sc), vehicle: Klucel (hydroxypropylcellulose) (HPC)): 44 % of control; T/C (dose: 2400.0 mg/kg/injection, schedule: Q01DX010 (sc), vehicle: Klucel (hydroxypropylcellulose) (HPC)): 71 % of control

Q: Which results are given for `CCOC(=O)C(N)CSC(=O)NC` (centres undefined)?
A: T/C (dose: 150.0 mg/kg/injection, schedule: Q04DX004 (ip), vehicle: saline): 108 % of control; T/C (dose: 150.0 mg/kg/injection, schedule: Q04DX004 (sc), vehicle: saline): 58 % of control; T/C (dose: 300.0 mg/kg/injection, schedule: Q04DX004 (ip), vehicle: saline): 103 % of control; T/C (dose: 300.0 mg/kg/injection, schedule: Q04DX004 (sc), vehicle: saline): 75 % of control; T/C (dose: 600.0 mg/kg/injection, schedule: Q04DX004 (ip), vehicle: saline): 111 % of control; T/C (dose: 600.0 mg/kg/injection, schedule: Q04DX004 (sc), vehicle: saline): 59 % of control

Q: With `CS(=O)(=O)OCCCNCCCOS(C)(=O)=O` as the compound, how does the T/C [1] read?
A: Its T/C is 71 % of control.

Q: With `C=COC(=O)C(Cc1ccccc1)NC(=O)OCc1ccccc1` (centres undefined) as the compound, how does the T/C [3] read?
A: Its T/C is 100 % of control.

Q: What about the T/C [4] of the same compound?
A: Its T/C is 80 % of control.

Q: And the T/C [5]?
A: Its T/C is 123 % of control.

Q: And the T/C [6]?
A: The T/C was 60 % of control.

Q: `Nc1ncnc2c1ccn2C1OC(CO)C(O)C1O` (centres undefined) was tested. Which T/C (dose: 2.0 mg/kg/injection, schedule: Q01DX010 (sc), vehicle: Klucel (hydroxypropylcellulose) (HPC)) did it give?
A: Its T/C is 96 % of control.

Q: What about the T/C (dose: 4.0 mg/kg/injection, schedule: Q01DX010 (sc), vehicle: Klucel (hydroxypropylcellulose) (HPC)) of the same compound?
A: The T/C was 81 % of control.

Q: Which T/C (dose: 150.0 mg/kg/injection, schedule: Q04DX004 (ip), vehicle: DMSO) does the source give for `O=C(O)[C@H](Cc1ccccc1)N1C(=O)c2ccccc2C1=O` here?
A: Its T/C is 180 % of control.

Q: And the T/C (dose: 300.0 mg/kg/injection, schedule: Q04DX004 (ip), vehicle: DMSO)?
A: The T/C was 97 % of control.

Q: How did the T/C (dose: 300.0 mg/kg/injection, schedule: Q04DX004 (sc), vehicle: water) turn out when `BrCCC1(CCBr)CCCCC1` was run?
A: Its T/C is 97 % of control.

Q: What about the T/C (dose: 600.0 mg/kg/injection, schedule: Q04DX004 (sc), vehicle: water) of the same compound?
A: The T/C was 77 % of control.

Q: What about the T/C (dose: 1200.0 mg/kg/injection, schedule: Q04DX004 (sc), vehicle: water) of the same compound?
A: Its T/C is 58 % of control.

Q: What about the T/C (dose: 2400.0 mg/kg/injection, schedule: Q04DX004 (sc), vehicle: water) of the same compound?
A: The T/C was 76 % of control.
